The test addresses T1, FAAH (Rattus norvegicus, UniProt P97612).
T1 construct: Preparation of Rat Brain Membranes Preparations (FAAH Enzyme Solution); from tissue; host or cells: rat cerebrum (brain membrane preparation)
T1 sequence (P97612 1-579): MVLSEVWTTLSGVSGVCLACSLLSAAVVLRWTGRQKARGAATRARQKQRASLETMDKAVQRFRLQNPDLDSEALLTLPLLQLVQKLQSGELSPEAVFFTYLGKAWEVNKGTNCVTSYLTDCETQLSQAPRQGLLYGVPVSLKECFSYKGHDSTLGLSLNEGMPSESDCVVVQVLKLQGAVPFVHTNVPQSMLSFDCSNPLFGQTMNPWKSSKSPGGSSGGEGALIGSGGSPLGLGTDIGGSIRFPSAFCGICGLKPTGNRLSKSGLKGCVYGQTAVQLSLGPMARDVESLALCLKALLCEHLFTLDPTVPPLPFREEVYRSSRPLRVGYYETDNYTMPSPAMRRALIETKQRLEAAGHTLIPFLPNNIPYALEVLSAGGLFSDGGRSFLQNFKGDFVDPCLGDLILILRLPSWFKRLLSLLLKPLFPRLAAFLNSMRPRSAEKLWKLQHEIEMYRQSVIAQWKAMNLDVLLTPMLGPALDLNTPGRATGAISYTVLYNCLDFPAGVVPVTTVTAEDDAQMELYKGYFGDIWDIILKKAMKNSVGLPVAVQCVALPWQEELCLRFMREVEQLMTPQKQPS
Description: Determination of FAAH inhibitory activity in rat (rat brain membrane preparations, [3H]-anandamide hydrolysis). It is filed as biochemical. Conditions: for inhibition at 0.1 µM: read-out: FAAH Inhibition, Inhibition Rate at 100 nM; for IC50: test substance 0.1 nM to 1 μM, read-out: FAAH Inhibition IC50. An outline of the steps:
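Rat cerebrum membranes (100 μg/mL protein) preincubated 10 min at 37 °C with compound (1% DMSO) in pH 7.6 Tris buffer with 1.5% BSA. Substrate 2 nM [3H]-anandamide plus 2 μM anandamide added for 10 min at 37 °C. [3H]-ethanolamine in the aqueous phase after chloroform/methanol extraction was scintillation counted; IC50 over 0.1 nM–1 μM.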

Setting [1] is: rat brain membrane preparations, 100 nM test substance.
Where [2] appears, read: rat brain membrane preparations.

The structures appear in SMILES notation. Read-outs that look alike come from different tables or passages of the source.

Consider `Cc1ccc(N2CCN(C(=O)n3c(=O)n(C)c4nc(-c5ccccc5)ncc43)CC2)cc1` [Example 128, 9-Methyl-7-{[4-(4-methylphenyl)piperazin-1-yl]carbonyl}-2-phenyl-7,9-dihydro-8H-purine-8-one], for which the inhibition at 0.1 µM under setting [1] was found to be 99%. Also, the IC50 under setting [2] is 7 nM.

As to `Cc1cccc(N2CCN(C(=O)n3c(=O)n(C)c4nc(-c5ccccc5)ncc43)CC2)c1` [Example 129, 9-Methyl-7-{[4-(3-methylphenyl)piperazin-1-yl]carbonyl}-2-phenyl-7,9-dihydro-8H-purine-8-one], under setting [1], the inhibition at 0.1 µM was 98%. In addition, under setting [2], the IC50 came out at 7 nM.

As for `Cc1ccccc1N1CCN(C(=O)n2c(=O)n(C)c3nc(-c4ccccc4)ncc32)CC1` [Example 130, 9-Methyl-7-{[4-(2-methylphenyl)piperazin-1-yl]carbonyl}-2-phenyl-7,9-dihydro-8H-purine-8-one], the inhibition at 0.1 µM under setting [1] was 94%. The 50% inhibitory concentration (IC50) under setting [2] is 42 nM.

On to `CCOc1ccc(N2CCN(C(=O)n3c(=O)n(C)c4nc(-c5ccccc5)ncc43)CC2)cc1` [Example 131, 7-{[4-(4-Ethoxyphenyl)piperazin-1-yl]carbonyl}-9-methyl-2-phenyl-7,9-dihydro-8H-purine-8-one], for which, under setting [1], the inhibition at 0.1 µM worked out at 99%. In addition, the IC50 under setting [2] was found to be 4 nM.

On to `Cn1c(=O)n(C(=O)N2CCN(c3ccc(C#N)cc3)CC2)c2cnc(-c3ccccc3)nc21` [Example 132, 4-{4-[(9-Methyl-8-oxo-2-phenyl-8,9-dihydro-7H-purine-7-yl)carbonyl]piperazin-1-yl}benzonitrile], for which the inhibition at 0.1 µM under setting [1] is 99%. Besides, the IC50 under setting [2] is 6 nM.

`CC(=O)c1ccc(N2CCN(C(=O)n3c(=O)n(C)c4nc(-c5ccccc5)ncc43)CC2)cc1` [Example 133, 7-{[4-(4-Acetylphenyl)piperazin-1-yl]carbonyl}-9-methyl-2-phenyl-7,9-dihydro-8H-purine-8-one]: under setting [1], the inhibition at 0.1 µM is 100%. Further, the IC50 under setting [2] is 6 nM.

`Cn1c(=O)n(C(=O)N2CCN(c3ccc(C(F)(F)F)cc3)CC2)c2cnc(-c3ccccc3)nc21` [Example 134, 9-Methyl-2-phenyl-7-({4-[4-(trifluoromethyl)phenyl]piperazin-1-yl}carbonyl)-7,9-dihydro-8H-purine-8-one]: the inhibition at 0.1 µM under setting [1] is 96%. Besides, the IC50 under setting [2] is 7 nM.

In the case of `COc1ccc(N2CCN(C(=O)n3c(=O)n(C)c4nc(-c5ccccc5)ncc43)CC2)cc1` [Example 135, 7-{[4-(4-Methoxyphenyl)piperazin-1-yl]carbonyl}-9-methyl-2-phenyl-7,9-dihydro-8H-purine-8-one], the inhibition at 0.1 µM under setting [1] turned out to be 99%. In addition, the IC50 under setting [2] stood at 5 nM.

For the compound `COc1cccc(-c2ncc3c(n2)n(C)c(=O)n3C(=O)N2CCN(c3ccc(F)cc3)CC2)c1` [Example 136, 7-{[4-(4-Fluorophenyl)piperazin-1-yl]carbonyl}-2-(3-methoxyphenyl)-9-methyl-7,9-dihydro-8H-purine-8-one], the inhibition at 0.1 µM under setting [1] was 99%. The IC50 under setting [2] came to 3 nM.

Regarding `COc1cccc(-c2ncc3c(n2)n(C)c(=O)n3C(=O)N2CCN(c3cccc(F)c3)CC2)c1` [Example 137, 7-{[4-(3-Fluorophenyl)piperazin-1-yl]carbonyl}-2-(3-methoxyphenyl)-9-methyl-7,9-dihydro-8H-purine-8-one], under setting [1], the inhibition at 0.1 µM was found to be 98%. For the same compound, under setting [2], the IC50 was determined as 5 nM.

With `COc1cccc(-c2ncc3c(n2)n(C)c(=O)n3C(=O)N2CCN(c3ccc(C)cc3)CC2)c1` [Example 138, 2-(3-Methoxyphenyl)-9-methyl-7-{[4-(4-methylphenyl)piperazin-1-yl]carbonyl}-7,9-dihydro-8H-purine-8-one], the inhibition at 0.1 µM under setting [1] was determined as 99%. In addition, the IC50 under setting [2] came out at 6 nM.

Take `COc1cccc(-c2ncc3c(n2)n(C)c(=O)n3C(=O)N2CCN(c3cccc(C)c3)CC2)c1` [Example 139, 2-(3-Methoxyphenyl)-9-methyl-7-{[4-(3-methylphenyl)piperazin-1-yl]carbonyl}-7,9-dihydro-8H-purine-8-one]: the inhibition at 0.1 µM under setting [1] came to 99%. In addition, under setting [2], the half-inhibitory concentration (IC50) came out at 6 nM.

`COc1cccc(-c2ncc3c(n2)n(C)c(=O)n3C(=O)N2CCN(c3ccccc3)CC2)c1` [Example 140, 2-(3-Methoxyphenyl)-9-methyl-7-[(4-phenylpiperazin-1-yl)carbonyl]-7,9-dihydro-8H-purine-8-one]: the inhibition at 0.1 µM under setting [1] is 99%. The IC50 under setting [2] was found to be 7 nM.

`CCOc1ccc(N2CCN(C(=O)n3c(=O)n(C)c4nc(-c5cccc(OC)c5)ncc43)CC2)cc1` [Example 141, 7-{[4-(4-Ethoxyphenyl)piperazin-1-yl]carbonyl}-2-(3-methoxyphenyl)-9-methyl-7,9-dihydro-8H-purine-8-one]: under setting [1], the inhibition at 0.1 µM was 100%. Moreover, the IC50 under setting [2] worked out at 4 nM.

`COc1cccc(-c2ncc3c(n2)n(C)c(=O)n3C(=O)N2CCN(c3ccc(Cl)cc3)CC2)c1` [Example 142, 7-{[4-(4-Chlorophenyl)piperazin-1-yl]carbonyl}-2-(3-methoxyphenyl)-9-methyl-7,9-dihydro-8H-purine-8-one]: under setting [1], the inhibition at 0.1 µM is 99%. The IC50 under setting [2] turned out to be 5 nM.

As for `CN(C)C(=O)n1c(=O)n(C)c2nc(-c3cccnc3)ncc21` [Example 143, N,N,9-Trimethyl-8-oxo-2-(pyridin-3-yl)-8,9-dihydro-7H-purine-7-carboxamide], under setting [1], the inhibition at 0.1 µM was determined as 100%. Also, the IC50 under setting [2] is 15 nM.

Take `CCOc1ccc(N2CCN(C(=O)n3c(=O)n(C)c4nc(-c5cccnc5)ncc43)CC2)cc1` [Example 144, 7-{[4-(4-Ethoxyphenyl)piperazin-1-yl]carbonyl}-9-methyl-2-(pyridin-3-yl)-7,9-dihydro-8H-purine-8-one]: under setting [1], the inhibition at 0.1 µM is 100%. The IC50 under setting [2] was less than 1 nM.

For the compound `CN(CCc1ccc(Cl)cc1)C(=O)n1c(=O)n(C)c2nc(-c3cccnc3)ncc21` [Example 145, N-[2-(4-Chlorophenyl)ethyl]-N,9-dimethyl-8-oxo-2-(pyridin-3-yl)-8,9-dihydro-7H-purine-7-carboxamide], the inhibition at 0.1 µM under setting [1] was found to be 100%. Also, under setting [2], the IC50 is less than 1 nM.

With `CN(CCOc1ccc(Cl)cc1)C(=O)n1c(=O)n(C)c2nc(-c3cccnc3)ncc21` [Example 146, N-[2-(4-Chlorophenoxy)ethyl]-N,9-dimethyl-8-oxo-2-(pyridin-3-yl)-8,9-dihydro-7H-purine-7-carboxamide], the inhibition at 0.1 µM under setting [1] amounted to 99%. Further, under setting [2], the IC50 is less than 1 nM.

`Cn1c(=O)n(C(=O)N2CCC(CCc3ccc(Cl)cc3)CC2)c2cnc(-c3cccnc3)nc21` [Example 147, 7-({4-[2-(4-Chlorophenyl)ethyl]piperidin-1-yl}carbonyl)-9-methyl-2-(pyridin-3-yl)-7,9-dihydro-8H-purine-8-one]: the inhibition at 0.1 µM under setting [1] stood at 96%. Also, the IC50 under setting [2] is less than 1 nM.

Take `CN(C)C(=O)n1c(=O)n(C)c2nc(-c3ccncc3)ncc21` [Example 148, N,N,9-Trimethyl-8-oxo-2-(pyridin-4-yl)-8,9-dihydro-7H-purine-7-carboxamide]: under setting [1], the inhibition at 0.1 µM was 97%. Besides, the IC50 under setting [2] is 30 nM.

Regarding `CCOc1ccc(N2CCN(C(=O)n3c(=O)n(C)c4nc(-c5ccncc5)ncc43)CC2)cc1` [Example 149, 7-{[4-(4-Ethoxyphenyl)piperazin-1-yl]carbonyl}-9-methyl-2-(pyridin-4-yl)-7,9-dihydro-8H-purine-8-one], the inhibition at 0.1 µM under setting [1] was determined as 102%. Besides, the IC50 under setting [2] is less than 1 nM.

In the case of `CN(CCc1ccc(Cl)cc1)C(=O)n1c(=O)n(C)c2nc(-c3ccncc3)ncc21` [Example 150, N-[2-(4-Chlorophenyl)ethyl]-N,9-dimethyl-8-oxo-2-(pyridin-4-yl)-8,9-dihydro-7H-purine-7-carboxamide], the inhibition at 0.1 µM was 106%. In addition, under setting [2], the IC50 was less than 1 nM.

`CN(CCOc1ccc(Cl)cc1)C(=O)n1c(=O)n(C)c2nc(-c3ccncc3)ncc21` [Example 151, N-[2-(4-Chlorophenoxy)ethyl]-N,9-dimethyl-8-oxo-2-(pyridin-4-yl)-8,9-dihydro-7H-purine-7-carboxamide]: under setting [1], the inhibition at 0.1 µM stood at 102%. In addition, the IC50 under setting [2] was 0.5 nM.

As to `Cn1c(=O)n(C(=O)N2CCC(CCc3ccc(Cl)cc3)CC2)c2cnc(-c3ccncc3)nc21` [Example 152, 7-({4-[2-(4-Chlorophenyl)ethyl]piperidin-1-yl}carbonyl)-9-methyl-2-(pyridin-4-yl)-7,9-dihydro-8H-purine-8-one], the inhibition at 0.1 µM under setting [1] stood at 102%. The IC50 under setting [2] was 0.6 nM.

For the compound `CN(CCc1ccc(Cl)cc1)C(=O)n1c(=O)n(C)c2nc(C3CC3)ncc21` [Example 153, N-[2-(4-Chlorophenyl)ethyl]-2-cyclopropyl-N,9-dimethyl-8-oxo-8,9-dihydro-7H-purine-7-carboxamide], under setting [1], the inhibition at 0.1 µM is 99%. In addition, the IC50 under setting [2] was 27 nM.

The inhibition is the relative decrease from the control value, in per cent. As a reminder, the IC50 is the point on the concentration scale where inhibition reaches its midpoint.

Values taken from patent publication US8735406B2, “8-oxodihydropurine derivative” (Dainippon Sumitomo Pharma Co., Ltd., priority 2009, dated 2014).
